Assay results: patent US20110288017A1, “APO-LIPOPROTEIN PROPEPTIDE” (priority 2010, published 2011)

How the values were obtained:
[1] = tested on: Zucker rat liver cells; experiment: Confocal microscopy of liver cells treated with fluorescently labeled propeptide; type: cell-based
From the text: (§1) A peptide with the amino acid sequence WEFWQQ (corresponding to the rat sequence of the Apo AI propeptide) containing a fluorescein group attached to the N-terminus was custom synthesized by Cambridge biochemical reagents. Synthetic version of the peptide was made using standard Merrifield peptide synthesis techniques (http://en.wikipedia.org/wiki/Peptide_synthesis). Other standard techniques that would apply here would be the use of bacteria to synthesize large quantities of the peptide (http://en.wikipedia.org/wiki/Recombinant_DNA).
(§2) Liver tissue was obtained from lean Zucker rats and placed in liver digest media. The liver digest media was then drained into a conical vial and the liver was placed in another sterile beaker of hepatozyme wash media. Clean gauze was placed at the opening to the conical vials and the liver was washed with the hepatozyme wash media yet again. This process filtered the liver cells into the conical vials. The cells were centrifuged for five minutes at 6000 rpm. The cells were washed thoroughly with hepatozyme wash media and then resuspended in 5% Fetal Bovine Serum, 2 mM glutamine hepatozyme wash medium and pipetted into collagen wells. The collagen well plates were incubated at 37° Celsius and 5% CO2. After 19 hours, the media was replaced with clean, fresh Hepatozyme-SFM (3 mL). The media was further supplemented with L-glutamine (2 mM) after 23 hours. […]

[2] = Modified Western blot: native PAGE gel of liver lysate incubated with fluorescent propeptide; type: binding; details: young mouse (3 months) liver lysate, FIG. 5 Arrow 1
From the text: (§3) Rat liver tissue from an old (23 months) rat and mouse liver tissue from a young mouse (3 months) was obtained from Dr. Eric R. Blough (Biology department, Marshall University, Huntington, W. Va.). 0.104 g of liver tissue from the young mouse and 0.20 g of tissue from the old rat were placed in separate microcentrifuge tubes and washed thoroughly with phosphate buffered saline (“PBS”).
(§4) Rat liver tissue was lysed using CellLytic-MT lysis buffer (Sigma) following the procedure provided from Sigma. Along with the lysis buffer, a protease inhibitor cocktail containing pepstatin, aprotinin, and leupeptin was added. The samples were then centrifuged for 15 minutes at 14,000 rpm. Supernatant containing the cellular proteins was pulled from the samples and centrifuged for another 10 minutes.
(§5) Proteins from the lysate were separated by Native PAGE on a 12% polyacrylamide gel. The gel was run using Tris/Glycine running buffer for one hour at 200 V.
(§6) After protein separation by PAGE was complete, a picture of the gel was taken using an ultraviolet (“UV”) lamp to excite any fluorescent molecules. The UV exposure time was 20 s. The gel was then incubated with the fluorescent labeled Apo AI propeptide in Tris buffered saline with 5% Tween (“TBST”) overnight on a rocking platform. Another picture of the gel was taken using the same UV exposure time as the initial picture. […]

[3] = as above; type: binding, rat; details: FIG. 4
From the text: as §3, §4, §5, §6

[4] = tested on: human epithelial cells; experiment: Confocal microscopy of epithelial cells treated with fluorescently labeled propeptide; type: cell-based
From the text: as §1, §2

[5] = target: T1, oxysterol receptor LXRβ (Rattus norvegicus, UniProt Q62755); experiment: Peptide bead pull-down from liver lysate, SDS-PAGE, MALDI-TOF peptide mass fingerprint; type: binding; details: lean Zucker rat liver lysate; peptide attached to benzyloxybenzylbromide resin at N-terminus; Mascot search; FIG. 6
T1 construct: Liver tissue from a lean Zucker rat was lysed; from tissue; host or cells: liver of lean Zucker rat (lysate, CellLytic-MT buffer)
T1 sequence (Q62755 1-446): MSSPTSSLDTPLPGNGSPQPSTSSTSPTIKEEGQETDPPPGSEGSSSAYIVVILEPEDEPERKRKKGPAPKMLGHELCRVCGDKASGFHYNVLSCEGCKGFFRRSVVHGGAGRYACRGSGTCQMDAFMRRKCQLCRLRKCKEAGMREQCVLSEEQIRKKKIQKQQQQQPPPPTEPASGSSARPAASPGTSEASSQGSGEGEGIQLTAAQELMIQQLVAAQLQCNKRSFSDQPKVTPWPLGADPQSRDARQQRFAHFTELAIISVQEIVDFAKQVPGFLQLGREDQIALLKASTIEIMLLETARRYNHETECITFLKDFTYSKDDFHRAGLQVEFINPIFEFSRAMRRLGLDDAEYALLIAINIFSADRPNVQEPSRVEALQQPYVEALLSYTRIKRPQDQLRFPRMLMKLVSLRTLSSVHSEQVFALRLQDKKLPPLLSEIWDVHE
From the text: The Apo AI propeptide was attached to benzyloxybenzylbromide resin at its N-terminus. Rat liver tissue was lysed using CellLytic-MT lysis buffer using the procedure outlined above. This buffer may be purchased from Sigma-Aldrich Corp. (“Sigma”) (St. Louis, Mo.). […] The protein lysate was removed and added to the peptide modified beads. The solution was shaken for one hour; the supernatant was then removed leaving only the resin beads. The resin beads were washed three times with PBS, and then 30 μl of gel loading solution was added to the resin beads. The solution was heated at 100° C. for five minutes and then loaded onto a polyacrylamide gel (4-20% polyacrylamide) and separated by SDS-PAGE.
Protein bands of interest were cut from the gel and digested with trypsin overnight following the procedure used at University of California, San Francisco (http://donatello.ucsf.edu/ingel.html). The peptide fragments were analyzed on a Bruker MALDI-TOF mass spectrometer which provided the peptide fragment molecular weight maps of the proteins for protein identification.
Another set of experiments were designed to determine the identity of any proteins capable of binding to the Apo AI propeptide. The Apo AI propeptide, WEFWQQ, was attached to benzyloxybenzylbromide resin beads at its N-terminus. […]

WEFWQQ (PROPEP (1)..(6); listed as Rattus norvegicus)
entry of the propeptide into cells and nucleus (confocal image) ([1]; Zucker rat liver cells, peptide labeled at N-terminus with fluorescein, FIG. 1): clearly entering the cells and entering the nucleus of the cells | time to entry into cells after peptide application ([1]; liver cells, fluorescently labeled peptide): within seconds | fluorescent band after incubation with the peptide [2]: same band as was seen in FIG. 4 | binding to a protein on the gel (new fluorescent band after incubation) ([3]; old rat (23 months) liver lysate, overnight incubation): binding to a protein on the gel | fluorescence of higher molecular weight band (possibly DNA) after peptide incubation ([3]; old rat liver lysate): increase in the fluorescence intensity of a higher molecular weight band | time to entry into cells after peptide application [4]: within seconds | identity of the protein bound to the peptide beads (band at about 45 kDa) [5]: identified the protein as the oxysterol receptor LXRβ
